# Measured values: patent US20240358693A1, “METHODS OF TREATING PAIN” (Aisa Pharma, Inc., priority 2023, published 2024)
# Tested on: participants with SSc-RP
# Experiment: Average severity of weekly RP attacks (VAS 0-10 cm scale)
# Assay type: in vivo, human
# Description: The absolute change in average severity of weekly RP attacks (VAS 0-10 cm scale) from baseline to the end of each Dosing Period was and will be a secondary outcome variable. The sponsor-developed participant-informed diary will be used to record data. Average severity of weekly RP attacks is defined as the total severity scores of RP attacks divided by total number of RP attacks within the last 7 days of each dosing period. Total severity scores of RP attacks during the last 7 days of screening period divided by the total number of RP attacks will be used as baseline for the analysis of all periods. The variable will be calculated similar to frequency data as before.
# [1] = Cilnidipine 20 mg, ITT Population - Part A
# [2] = Cilnidipine 20 mg, first Baseline RCS subgroup block (not named), ITT Part A
# [3] = Cilnidipine 20 mg, first Baseline RCS subgroup block (not named), ITT Part A, score 0-10
# [4] = Excluding Outliers, Cilnidipine 10 mg, first Baseline RCS subgroup block (not named), ITT Part A
# [5] = Excluding Outliers, Cilnidipine 10 mg, first Baseline RCS subgroup block (not named), ITT Part A, score 0-10
# [6] = Excluding Outliers, Cilnidipine 20 mg, first Baseline RCS subgroup block (not named), ITT Part A
# [7] = Excluding Outliers, Cilnidipine 20 mg, first Baseline RCS subgroup block (not named), ITT Part A, score 0-10
# [8] = Excluding Outliers, Pooled Cilnidipine 10 mg and Cilnidipine 10 mg + Tadalafil 5 mg, first Baseline RCS subgroup block (not named), ITT Part A
# [9] = Excluding Outliers, Pooled Cilnidipine 10 mg and Cilnidipine 10 mg + Tadalafil 5 mg, first Baseline RCS subgroup block (not named), ITT Part A, score 0-10
# [10] = Excluding Outliers, Pooled Cilnidipine 10 mg and Cilnidipine 10 mg + Tadalafil 5 mg, second Baseline RCS subgroup block (not named), ITT Part A
# [11] = Excluding Outliers, Pooled Cilnidipine 10 mg and Cilnidipine 10 mg + Tadalafil 5 mg, second Baseline RCS subgroup block (not named), ITT Part A, score 0-10
# [12] = Excluding Outliers, Pooled Cilnidipine 20 mg and Cilnidipine 20 mg + Tadalafil 5 mg, first Baseline RCS subgroup block (not named), ITT Part A
# [13] = Excluding Outliers, Pooled Cilnidipine 20 mg and Cilnidipine 20 mg + Tadalafil 5 mg, first Baseline RCS subgroup block (not named), ITT Part A, score 0-10
# [14] = Excluding Outliers, Pooled Cilnidipine 20 mg and Cilnidipine 20 mg + Tadalafil 5 mg, second Baseline RCS subgroup block (not named), ITT Part A
# [15] = Excluding Outliers, Pooled Cilnidipine 20 mg and Cilnidipine 20 mg + Tadalafil 5 mg, second Baseline RCS subgroup block (not named), ITT Part A, score 0-10
# [16] = Excluding Outliers, Pooled Cilnidipine, first Baseline RCS subgroup block (not named), ITT Part A
# [17] = Excluding Outliers, Pooled Cilnidipine, first Baseline RCS subgroup block (not named), ITT Part A, score 0-10
# [18] = Pooled (over cilnidipine doses), Excluding Outliers, ITT Population - Part A
# [19] = Pooled (over cilnidipine doses), Excluding Outliers, by Baseline RCS, first subgroup, ITT Population - Part A
# [20] = Pooled (over cilnidipine doses), ITT Population - Part A
compound,measurement,setting,value
"COCCOC(=O)C1=C(C)NC(C)=C(C(=O)OC/C=C/c2ccccc2)C1c1cccc([N+](=O)[O-])c1 (stereo not shown) [Cilnidipine, cilnidipine]","Average Severity of Weekly RP Attacks (All Attacks), Change from Baseline, Median",[1],−1.07
same,"Average Severity of Weekly RP Attacks (All Attacks), Mean",[1],2.30
same,"Average Severity of Weekly RP Attacks (All Attacks), Median",[1],2.30
same,"Average Severity of Weekly RP Attacks (All Attacks), Percent Change from Baseline, Mean",[1],−27.26%
same,"Average Severity of Weekly RP Attacks (All Attacks), Percent Change from Baseline, Median",[1],−27.26%
same,"Average Severity of Weekly RP Attacks (All Attacks), Percent Change from Baseline, Mean",[2],−27.26%
same,"Average Severity of Weekly RP Attacks (All Attacks), Percent Change from Baseline, Median",[2],−27.26%
same,"Average Severity of Weekly RP Attacks (All Attacks), Change from Baseline, Mean",[3],−1.07
same,"Average Severity of Weekly RP Attacks (All Attacks), Change from Baseline, Median",[3],−1.07
same,"Average Severity of Weekly RP Attacks (All Attacks), Mean",[3],2.30
same,"Average Severity of Weekly RP Attacks (All Attacks), Median",[3],2.30
same,Mean % reduction in severity,Cilnidipine (20 mg) (n = 3),35.5%
same,Mean severity at baseline,Cilnidipine (20 mg) (n = 3),3.7
same,Severity,Cilnidipine (20 mg) (n = 3),−36%
same,"Average Severity of Weekly RP Attacks (All Attacks), Percent Change from Baseline, Mean",[4],0.55%
same,"Average Severity of Weekly RP Attacks (All Attacks), Percent Change from Baseline, Median",[4],0.55%
same,"Average Severity of Weekly RP Attacks (All Attacks), Change from Baseline, Mean",[5],0.02
same,"Average Severity of Weekly RP Attacks (All Attacks), Change from Baseline, Median",[5],0.02
same,"Average Severity of Weekly RP Attacks (All Attacks), Mean",[5],3.05
same,"Average Severity of Weekly RP Attacks (All Attacks), Median",[5],3.05
same,"Average Severity of Weekly RP Attacks (All Attacks), Percent Change from Baseline, Mean",[6],−27.26%
same,"Average Severity of Weekly RP Attacks (All Attacks), Percent Change from Baseline, Median",[6],−27.26%
same,"Average Severity of Weekly RP Attacks (All Attacks), Change from Baseline, Mean",[7],−1.07
same,"Average Severity of Weekly RP Attacks (All Attacks), Change from Baseline, Median",[7],−1.07
same,"Average Severity of Weekly RP Attacks (All Attacks), Mean",[7],2.30
same,"Average Severity of Weekly RP Attacks (All Attacks), Median",[7],2.30
same,"Average Severity of Weekly RP Attacks (All Attacks), Percent Change from Baseline, Mean",[8],−23.94%
same,"Average Severity of Weekly RP Attacks (All Attacks), Percent Change from Baseline, Median",[8],−23.94%
same,"Average Severity of Weekly RP Attacks (All Attacks), Change from Baseline, Mean",[9],−1.35
same,"Average Severity of Weekly RP Attacks (All Attacks), Change from Baseline, Median",[9],−1.35
same,"Average Severity of Weekly RP Attacks (All Attacks), Mean",[9],2.97
same,"Average Severity of Weekly RP Attacks (All Attacks), Median",[9],2.97
same,"Average Severity of Weekly RP Attacks (All Attacks), Percent Change from Baseline, Mean",[10],−21.20%
same,"Average Severity of Weekly RP Attacks (All Attacks), Percent Change from Baseline, Median",[10],−21.20%
same,"Average Severity of Weekly RP Attacks (All Attacks), Change from Baseline, Mean",[11],−1.32
same,"Average Severity of Weekly RP Attacks (All Attacks), Change from Baseline, Median",[11],−1.32
same,"Average Severity of Weekly RP Attacks (All Attacks), Mean",[11],4.90
same,"Average Severity of Weekly RP Attacks (All Attacks), Median",[11],4.90
same,"Average Severity of Weekly RP Attacks (All Attacks), Percent Change from Baseline, Mean",[12],−21.36%
same,"Average Severity of Weekly RP Attacks (All Attacks), Percent Change from Baseline, Median",[12],−9.57%
same,"Average Severity of Weekly RP Attacks (All Attacks), Change from Baseline, Mean",[13],−0.84
same,"Average Severity of Weekly RP Attacks (All Attacks), Change from Baseline, Median",[13],−0.39
same,"Average Severity of Weekly RP Attacks (All Attacks), Mean",[13],2.78
same,"Average Severity of Weekly RP Attacks (All Attacks), Median",[13],2.40
same,"Average Severity of Weekly RP Attacks (All Attacks), Percent Change from Baseline, Mean",[14],−23.23%
same,"Average Severity of Weekly RP Attacks (All Attacks), Percent Change from Baseline, Median",[14],−23.23%
same,"Average Severity of Weekly RP Attacks (All Attacks), Change from Baseline, Mean",[15],−1.53
same,"Average Severity of Weekly RP Attacks (All Attacks), Change from Baseline, Median",[15],−1.53
same,"Average Severity of Weekly RP Attacks (All Attacks), Mean",[15],5.06
same,"Average Severity of Weekly RP Attacks (All Attacks), Median",[15],5.06
same,"Average Severity of Weekly RP Attacks (All Attacks), Percent Change from Baseline, Mean",[16],−17.99%
same,"Average Severity of Weekly RP Attacks (All Attacks), Percent Change from Baseline, Median",[16],−7.69%
same,"Average Severity of Weekly RP Attacks (All Attacks), Change from Baseline, Mean",[17],−0.71
same,"Average Severity of Weekly RP Attacks (All Attacks), Change from Baseline, Median",[17],−0.20
same,"Average Severity of Weekly RP Attacks (All Attacks), Mean",[17],2.55
same,"Average Severity of Weekly RP Attacks (All Attacks), Median",[17],2.40
same,"Average Severity of Weekly RP Attacks (All Attacks), Change from Baseline, Mean",[18],−0.71
same,"Average Severity of Weekly RP Attacks (All Attacks), Change from Baseline, Median",[18],−0.20
same,"Average Severity of Weekly RP Attacks (All Attacks), Mean",[18],2.55
same,"Average Severity of Weekly RP Attacks (All Attacks), Median",[18],2.40
same,"Average Severity of Weekly RP Attacks (All Attacks), Percent Change from Baseline, Mean",[18],−17.99%
same,"Average Severity of Weekly RP Attacks (All Attacks), Percent Change from Baseline, Median",[18],−7.69%
same,Average Severity of Weekly Symptomatic RP Attacks (Mean),[19],2.79
same,Average Severity of Weekly Symptomatic RP Attacks (Median),[19],2.40
same,"Average Severity of Weekly Symptomatic RP Attacks, Change from Baseline, Mean",[19],−0.87
same,"Average Severity of Weekly Symptomatic RP Attacks, Change from Baseline, Median",[19],−0.33
same,"Average Severity of Weekly Symptomatic RP Attacks, Percent Change from Baseline, Mean",[19],−19.22%
same,"Average Severity of Weekly Symptomatic RP Attacks, Percent Change from Baseline, Median",[19],−12.02%
same,"Average Severity of Weekly RP Attacks (All Attacks), Change from Baseline, Mean",[20],−0.71
same,"Average Severity of Weekly RP Attacks (All Attacks), Change from Baseline, Median",[20],−0.20
same,"Average Severity of Weekly RP Attacks (All Attacks), Mean",[20],2.55
same,"Average Severity of Weekly RP Attacks (All Attacks), Median",[20],2.40
same,"Average Severity of Weekly RP Attacks (All Attacks), Percent Change from Baseline, Mean",[20],−17.99%
